{"source": "patent US20170072033A1", "about": "“LIPOSOMAL COMPOSITIONS FOR MUCOSAL DELIVERY” (GlaxoSmithKline Biologicals, SA, priority 2014, published 2017)", "test": "Rabbit pyrogen test", "conditions": "ng CRX-601/kg animal body weight", "experimental": "The test was performed at Pacific Biolabs (Hercules, Calif.) as per their SOP 16E-02, which follows procedures outlined in USP<151>."}
{"smiles": "CCCCCCCCCCC[C@H](CC(=O)N[C@H]1[C@H](OC[C@H](NC(=O)C[C@@H](CCCCCCCCCCC)OCCCCCCCCCC)C(=O)O)O[C@H](CO)[C@@H](OP(=O)(O)O)[C@@H]1OC(=O)C[C@@H](CCCCCCCCCCC)OCCCCCCCCCC)OCCCCCCCCCC", "note": "[CRX-601]", "values": [{"measurement": "max non-pyrogenic dose", "result": 0.0025, "unit": "µg/kg"}]}
